“And” between values parts separate entries of the source, which are not always exact repeats. Equal entries are not always repeated. Inconclusive results and toxic doses are left out. The calls were made as follows: active = survival T/C of 150% or more; inactive = T/C below 125% in these data.
Test system: CD2F1 mice, L1210 leukemia ip, survival T/C
Experiment: NCI In Vivo Anticancer Drug Screen. Data for tumor model L1210 Leukemia (intraperitoneal) in CD2F1 (CDF1) mice
Conditions: higher = longer survival
Summary of the method: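 Transplantable tumor in mice; compound-treated vs vehicle-treated groups. Read-out = treated/control ratio of the measured endpoint.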

Measured: T/C

O=C(COc1ccc(Cl)c(Cl)c1)NCc1cccc([N+](=O)[O-])c1
inactive: endpoint: mean survival time, dose: 75.0 mg/kg/injection, schedule: Q01DX001 (ip), vehicle: saline with Tween-80 93 % of control | endpoint: mean survival time, dose: 150.0 mg/kg/injection, schedule: Q01DX001 (ip), vehicle: saline with Tween-80 88 % of control | endpoint: mean survival time, dose: 300.0 mg/kg/injection, schedule: Q01DX001 (ip), vehicle: saline with Tween-80 86 % of control

O=[N+]([O-])c1nccn1CC(O)CO (stereo not drawn)
inactive: endpoint: mean survival time, dose: 12.5 mg/kg/injection, schedule: Q01DX009 (ip), vehicle: saline 102 % of control | endpoint: mean survival time, dose: 25.0 mg/kg/injection, schedule: Q01DX009 (ip), vehicle: saline 105 % of control | endpoint: mean survival time, dose: 50.0 mg/kg/injection, schedule: Q01DX009 (ip), vehicle: saline 102 % of control | endpoint: mean survival time, dose: 100.0 mg/kg/injection, schedule: Q01DX009 (ip), vehicle: saline 101 % of control | endpoint: mean survival time, dose: 200.0 mg/kg/injection, schedule: Q01DX009 (ip), vehicle: saline 102 % of control | endpoint: mean survival time, dose: 400.0 mg/kg/injection, schedule: Q01DX009 (ip), vehicle: saline 103 % of control

O=[N+]([O-])c1ccc(/C=N\N=C\c2ccco2)cc1
inactive: endpoint: mean survival time, dose: 100.0 mg/kg/injection, schedule: Q04DX003 (ip), vehicle: saline with Tween-80 88 % of control | endpoint: mean survival time, dose: 200.0 mg/kg/injection, schedule: Q01DX009 (ip), vehicle: saline with Tween-80 86 % of control | endpoint: mean survival time, dose: 200.0 mg/kg/injection, schedule: Q04DX003 (ip), vehicle: saline with Tween-80 111 % of control | endpoint: mean survival time, dose: 400.0 mg/kg/injection, schedule: Q04DX003 (ip), vehicle: saline with Tween-80 102 % of control

Cc1cc(N(CCCl)CCCl)ccc1N=Nc1ccccc1C(=O)O
inactive: endpoint: mean survival time, dose: 2.0 mg/kg/injection, schedule: Q01DX009 (ip), vehicle: saline with Tween-80 112 % of control | endpoint: mean survival time, dose: 4.0 mg/kg/injection, schedule: Q01DX009 (ip), vehicle: saline with Tween-80 120 % of control | endpoint: mean survival time, dose: 4.0 mg/kg/injection, schedule: Q04DX003 (ip), vehicle: saline with Tween-80 102 % of control | endpoint: mean survival time, dose: 5.0 mg/kg/injection, schedule: Q01DX009 (ip), vehicle: saline 114 % of control and 106 % of control | endpoint: mean survival time, dose: 8.0 mg/kg/injection, schedule: Q01DX009 (ip), vehicle: saline with Tween-80 120 % of control | endpoint: mean survival time, dose: 8.0 mg/kg/injection, schedule: Q04DX003 (ip), vehicle: saline with Tween-80 109 % of control | endpoint: mean survival time, dose: 10.0 mg/kg/injection, schedule: Q01DX001 (ip), vehicle: saline with Tween-80 106 % of control | endpoint: mean survival time, dose: 10.0 mg/kg/injection, schedule: Q01DX009 (ip), vehicle: saline with Tween-80 114 % of control | endpoint: mean survival time, dose: 10.0 mg/kg/injection, schedule: Q01DX009 (ip), vehicle: saline 115 % of control and 120 % of control | endpoint: mean survival time, dose: 10.0 mg/kg/injection, schedule: Q03DX003 (ip), vehicle: saline 113 % of control | endpoint: mean survival time, dose: 16.0 mg/kg/injection, schedule: Q04DX003 (ip), vehicle: saline with Tween-80 115 % of control | endpoint: mean survival time, dose: 20.0 mg/kg/injection, schedule: Q01DX001 (ip), vehicle: saline with Tween-80 102 % of control | endpoint: mean survival time, dose: 20.0 mg/kg/injection, schedule: Q01DX009 (ip), vehicle: saline with Tween-80 109 % of control | endpoint: mean survival time, dose: 20.0 mg/kg/injection, schedule: Q01DX009 (ip), vehicle: saline 122 % of control | endpoint: mean survival time, dose: 32.0 mg/kg/injection, schedule: Q01DX009 (ip), vehicle: saline with Tween-80 97 % of control | endpoint: mean survival time, dose: 40.0 mg/kg/injection, schedule: Q01DX001 (ip), vehicle: saline with Tween-80 115 % of control and 120 % of control | endpoint: mean survival time, dose: 40.0 mg/kg/injection, schedule: Q01DX007 (ip), vehicle: saline 100 % of control | endpoint: mean survival time, dose: 40.0 mg/kg/injection, schedule: Q01DX009 (ip), vehicle: saline 89 % of control | endpoint: mean survival time, dose: 64.0 mg/kg/injection, schedule: Q04DX003 (ip), vehicle: saline with Tween-80 103 % of control | endpoint: mean survival time, dose: 80.0 mg/kg/injection, schedule: Q01DX001 (ip), vehicle: saline with Tween-80 117 % of control and 91 % of control | endpoint: mean survival time, dose: 160.0 mg/kg/injection, schedule: Q01DX001 (ip), vehicle: saline with Tween-80 102 % of control | endpoint: median survival time, dose: 5.0 mg/kg/injection, schedule: Q01DX009 (ip), vehicle: saline 114 % of control and 105 % of control | endpoint: median survival time, dose: 10.0 mg/kg/injection, schedule: Q01DX009 (ip), vehicle: saline 117 % of control | endpoint: median survival time, dose: 20.0 mg/kg/injection, schedule: Q01DX009 (ip), vehicle: saline 117 % of control | endpoint: median survival time, dose: 40.0 mg/kg/injection, schedule: Q01DX009 (ip), vehicle: saline 114 % of control and 117 % of control

Source: PubChem BioAssay AID256 (DTP/NCI, 2004)
